From the NIST ThermoML archive (doi:10.1021/je8007167)
Values joined by “and” are separate entries in the source; they are usually repeats but may differ in a detail not shown here. Identical values can stand only once. ± gives the expanded uncertainty stated by the source.

Details: Crystal, Torsion effusion method

**Q.** What does the source list for `[Cl][Al]([Cl])[Cl]` [aluminum chloride]?
**A.** vapor or sublimation pressure (321 K): 0.00017 ± 7.1e-05 kPa; vapor or sublimation pressure (323 K): 0.000234 ± 7.4e-05 kPa; vapor or sublimation pressure (327 K): 0.00038 ± 9.1e-05 kPa; vapor or sublimation pressure (329 K): 0.000525 ± 9.3e-05 kPa and 0.000513 ± 9.2e-05 kPa; vapor or sublimation pressure (330 K): 0.00055 ± 0.0001 kPa; vapor or sublimation pressure (333 K): 0.000676 ± 0.00016 kPa; vapor or sublimation pressure (334 K): 0.000891 ± 0.00027 kPa; vapor or sublimation pressure (336 K): 0.001023 ± 0.00032 kPa; vapor or sublimation pressure (338 K): 0.001622 ± 0.0004 kPa; vapor or sublimation pressure (339 K): 0.001622 ± 0.00048 kPa and 0.001585 ± 0.00048 kPa; vapor or sublimation pressure (340 K): 0.002089 ± 0.00056 kPa and 0.001862 ± 0.00055 kPa; vapor or sublimation pressure (342 K): 0.002455 ± 0.00068 kPa; vapor or sublimation pressure (343 K): 0.002951 ± 0.00065 kPa; vapor or sublimation pressure (344 K): 0.003388 ± 0.00081 kPa; vapor or sublimation pressure (345 K): 0.003631 ± 0.0008 kPa and 0.003715 ± 0.0008 kPa; vapor or sublimation pressure (346 K): 0.003981 ± 0.0011 kPa; vapor or sublimation pressure (347 K): 0.004898 ± 0.0012 kPa and 0.004266 ± 0.0011 kPa; vapor or sublimation pressure (348 K): 0.004786 ± 0.0011 kPa and 0.00537 ± 0.0011 kPa; vapor or sublimation pressure (349 K): 0.00631 ± 0.0015 kPa; vapor or sublimation pressure (350 K): 0.006761 ± 0.0012 kPa; vapor or sublimation pressure (351 K): 0.006761 ± 0.002 kPa and 0.006457 ± 0.002 kPa; vapor or sublimation pressure (352 K): 0.008318 ± 0.0019 kPa; vapor or sublimation pressure (353 K): 0.008318 ± 0.0017 kPa and 0.008913 ± 0.0017 kPa; vapor or sublimation pressure (354 K): 0.01072 ± 0.0022 kPa and 0.00912 ± 0.0023 kPa; vapor or sublimation pressure (355 K): 0.01202 ± 0.0021 kPa and 0.01175 ± 0.0021 kPa; vapor or sublimation pressure (356 K): 0.01175 ± 0.0036 kPa; vapor or sublimation pressure (358 K): 0.01445 ± 0.0036 kPa and 0.01585 ± 0.0035 kPa; vapor or sublimation pressure (362 K): 0.02399 ± 0.0058 kPa; vapor or sublimation pressure (363 K): 0.0263 ± 0.0057 kPa; vapor or sublimation pressure (366 K): 0.03715 ± 0.0084 kPa; vapor or sublimation pressure (368.5 K): 0.04898 ± 0.011 kPa; vapor or sublimation pressure (369 K): 0.05129 ± 0.011 kPa; vapor or sublimation pressure (372 K): 0.06918 ± 0.018 kPa; vapor or sublimation pressure (373 K): 0.08511 ± 0.018 kPa; vapor or sublimation pressure (376.5 K): 0.1175 ± 0.019 kPa; vapor or sublimation pressure (378 K): 0.1288 ± 0.019 kPa

**Q.** Which results are given for `[F][Al]([F])[F]` [aluminum fluoride]?
**A.** vapor or sublimation pressure (956 K): 0.000105 ± 3.5e-05 kPa; vapor or sublimation pressure (960 K): 0.000132 ± 3.9e-05 kPa; vapor or sublimation pressure (968 K): 0.000209 ± 2.5e-05 kPa; vapor or sublimation pressure (970 K): 0.000209 ± 2.4e-05 kPa; vapor or sublimation pressure (974 K): 0.000209 ± 3.3e-05 kPa; vapor or sublimation pressure (975 K): 0.000209 ± 3.9e-05 kPa; vapor or sublimation pressure (977 K): 0.000263 ± 3.8e-05 kPa; vapor or sublimation pressure (982 K): 0.000316 ± 4.3e-05 kPa; vapor or sublimation pressure (985 K): 0.000363 ± 4.8e-05 kPa; vapor or sublimation pressure (987 K): 0.000363 ± 5.4e-05 kPa; vapor or sublimation pressure (991 K): 0.000417 ± 6.9e-05 kPa and 0.000468 ± 6.9e-05 kPa; vapor or sublimation pressure (994 K): 0.000468 ± 8e-05 kPa; vapor or sublimation pressure (998 K): 0.000575 ± 8.2e-05 kPa; vapor or sublimation pressure (1001 K): 0.000631 ± 8.5e-05 kPa; vapor or sublimation pressure (1002 K): 0.000676 ± 8.8e-05 kPa; vapor or sublimation pressure (1007 K): 0.000724 ± 0.0001 kPa; vapor or sublimation pressure (1010 K): 0.000813 ± 0.00012 kPa; vapor or sublimation pressure (1013 K): 0.000933 ± 0.00015 kPa; vapor or sublimation pressure (1014 K): 0.000933 ± 0.00015 kPa; vapor or sublimation pressure (1018 K): 0.001122 ± 0.00014 kPa; vapor or sublimation pressure (1022 K): 0.001259 ± 0.00018 kPa; vapor or sublimation pressure (1023 K): 0.001259 ± 0.00017 kPa; vapor or sublimation pressure (1026 K): 0.001413 ± 0.0002 kPa; vapor or sublimation pressure (1029 K): 0.001549 ± 0.0002 kPa; vapor or sublimation pressure (1033 K): 0.00182 ± 0.00024 kPa; vapor or sublimation pressure (1036 K): 0.001862 ± 0.00029 kPa; vapor or sublimation pressure (1040 K): 0.002188 ± 0.00027 kPa; vapor or sublimation pressure (1043 K): 0.002512 ± 0.00033 kPa; vapor or sublimation pressure (1048 K): 0.002754 ± 0.00032 kPa; vapor or sublimation pressure (1052 K): 0.003162 ± 0.00038 kPa and 0.003236 ± 0.00038 kPa; vapor or sublimation pressure (1053 K): 0.003236 ± 0.00044 kPa; vapor or sublimation pressure (1059 K): 0.00389 ± 0.00058 kPa; vapor or sublimation pressure (1062 K): 0.004467 ± 0.00055 kPa; vapor or sublimation pressure (1063 K): 0.004365 ± 0.00054 kPa; vapor or sublimation pressure (1066 K): 0.005012 ± 0.00067 kPa; vapor or sublimation pressure (1070 K): 0.00537 ± 0.00073 kPa; vapor or sublimation pressure (1071 K): 0.005754 ± 0.0007 kPa; vapor or sublimation pressure (1074 K): 0.00631 ± 0.0008 kPa; vapor or sublimation pressure (1078 K): 0.006918 ± 0.00086 kPa; vapor or sublimation pressure (1083 K): 0.008128 ± 0.00097 kPa and 0.008318 ± 0.00097 kPa; vapor or sublimation pressure (1086 K): 0.008913 ± 0.0011 kPa; vapor or sublimation pressure (1089 K): 0.009333 ± 0.0013 kPa; vapor or sublimation pressure (1093 K): 0.01072 ± 0.0012 kPa; vapor or sublimation pressure (1097 K): 0.0123 ± 0.0016 kPa; vapor or sublimation pressure (1098 K): 0.01202 ± 0.0016 kPa; vapor or sublimation pressure (1100 K): 0.01288 ± 0.0015 kPa; vapor or sublimation pressure (1104 K): 0.01479 ± 0.0019 kPa; vapor or sublimation pressure (1107 K): 0.01549 ± 0.0019 kPa; vapor or sublimation pressure (1109 K): 0.01698 ± 0.0019 kPa; vapor or sublimation pressure (1112 K): 0.0182 ± 0.0024 kPa; vapor or sublimation pressure (1113 K): 0.01862 ± 0.0023 kPa
